Data as given in ChEMBL document CHEMBL3885861, “Open TG-GATES”.

Species on record: Rattus norvegicus
Assay: Open TG-GATES - Regimen: Daily Repeat
Type: toxicity, organism-based, Sprague-Dawley
Set-up: regimen Daily Repeat, gender Male, age 6 weeks
Details: in vivo, po, 60 mg/kg, route gavage, dose level Middle; for APTT / Bas / Eos / Fbg / Hb / Ht / Lym / MCH / MCHC / MCV / Mono / Neu / PT / Plat / RBC / Ret / WBC: tissue Blood
[1] = 72 h, tissue Kidney, time 3 day
[2] = 72 h, tissue Plasma, time 3 day

CCc1oc2ccccc2c1C(=O)c1cc(Br)c(O)c(Br)c1 [BENZBROMARONE]
TERMINAL_BW (72 h, time 3 day): 238.9 g | APTT (72 h, time 3 day): 16.6 s | Bas (72 h, time 3 day): 0% | Eos (72 h, time 3 day): 1% | Fbg (72 h, time 3 day): 234.4 mg/dL | Hb (72 h, time 3 day): 13.5 g/dL | Ht (72 h, time 3 day): 40% | Lym (72 h, time 3 day): 76.4% | MCH (72 h, time 3 day): 21.6 pg | MCHC (72 h, time 3 day): 33.8% | MCV (72 h, time 3 day): 63.7 fL | Mono (72 h, time 3 day): 7.2% | Neu (72 h, time 3 day): 15.8% | PT (72 h, time 3 day): 11.6 s | Plat (72 h, time 3 day): 109.3 x10_4/uL | RBC (72 h, time 3 day): 628.4 x10_4/ul | Ret (72 h, time 3 day): 7.7% | WBC (72 h, time 3 day): 107.1 x10_2/uL | KIDNEY_L [1]: 1.1 g | KIDNEY_R [1]: 1.1 g | KIDNEY_TOTAL [1]: 2.1 g | LIVER (72 h, tissue Liver, time 3 day): 14.3 g | A/G [2]: 2 | ALP [2]: 793.8 IU/L | ALT [2]: 33.6 IU/L | AST [2]: 62.2 IU/L | BUN [2]: 18 mg/dL | CRE [2]: 0.6 mg/dL | Ca [2]: 10.3 mg/dL | Cl [2]: 106.2 meq/L | DBIL [2]: 0.014 mg/dL | GLC [2]: 190 mg/dL | IP [2]: 7.8 mg/dL | K [2]: 4.5 meq/L | LDH [2]: 104.4 IU/L | Na [2]: 140.2 meq/L | PL [2]: 138 mg/dL | RALB [2]: 4 g/dL | TBIL [2]: 0.3 mg/dL | TC [2]: 76.4 mg/dL | TG [2]: 62.8 mg/dL | TP [2]: 5.9 g/dL | gamma-GTP [2]: 0.8 IU/L | TERMINAL_BW ([…], time 7 day): 264.4 g | TERMINAL_BW ([…], time 14 day): 327 g | TERMINAL_BW ([…], time 28 day): 383.7 g | APTT ([…], time 7 day): 17.8 s | Bas ([…], time 7 day): 0% | Eos ([…], time 7 day): 1.2% | Fbg ([…], time 7 day): 234.6 mg/dL | Hb ([…], time 7 day): 14.4 g/dL | Ht ([…], time 7 day): 42.8% | Lym ([…], time 7 day): 80.8% | MCH ([…], time 7 day): 21.3 pg | MCHC ([…], time 7 day): 33.7% | MCV ([…], time 7 day): 63.3 fL | Mono ([…], time 7 day): 6.4% | Neu ([…], time 7 day): 11% | PT ([…], time 7 day): 12.2 s | Plat ([…], time 7 day): 119.4 x10_4/uL | RBC ([…], time 7 day): 675.2 x10_4/ul | Ret ([…], time 7 day): 5.6% | WBC ([…], time 7 day): 106.8 x10_2/uL | APTT ([…], time 14 day): 17.5 s | Bas ([…], time 14 day): 0% | Eos ([…], time 14 day): 1% | Fbg ([…], time 14 day): 237 mg/dL | Hb ([…], time 14 day): 14.5 g/dL | Ht ([…], time 14 day): 43.2% | Lym ([…], time 14 day): 79.4% | MCH ([…], time 14 day): 21.1 pg | MCHC ([…], time 14 day): 33.5% | MCV ([…], time 14 day): 63.1 fL | Mono ([…], time 14 day): 7% | Neu ([…], time 14 day): 12.4% | PT ([…], time 14 day): 12.1 s | Plat ([…], time 14 day): 110.5 x10_4/uL | RBC ([…], time 14 day): 685.4 x10_4/ul | Ret ([…], time 14 day): 4.6% | WBC ([…], time 14 day): 129.3 x10_2/uL | APTT ([…], time 28 day): 18.4 s | Bas ([…], time 28 day): 0% | Eos ([…], time 28 day): 1.6% | Fbg ([…], time 28 day): 232.6 mg/dL | Hb ([…], time 28 day): 15.2 g/dL | Ht ([…], time 28 day): 45.8%
